Target: Aβ42 (Homo sapiens, UniProt P05067)
Assay: Th-T (thioflavin-T) assay of Aβ42 aggregation
Format: biochemical

Sequence of Aβ42 (P05067 672-713): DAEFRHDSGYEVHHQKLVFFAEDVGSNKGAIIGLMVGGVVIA

C=C1CC[C@@H]2[C@](C)(CC[C@H]3O[C@H](C=C(C)C)C[C@@]23C)[C@@H]1Cc1c(OC)oc(CO)c(C(=O)OC)c1=O [Compound 21]
Fig. 7a Th-T reading, mean of three wells (column suffix _20, reading M101): 0.9158
Fig. 7a Th-T reading, mean of three wells (column suffix _20, reading M102): 0.9188
Fig. 7a Th-T reading, mean of three wells (column suffix _20, reading M103): 0.9187
Fig. 7a Th-T reading, mean of three wells (column suffix _20, reading M104): 0.9595
Fig. 7a Th-T reading, mean of three wells (column suffix _20, reading M105): 0.9387
Fig. 7a Th-T reading, mean of three wells (column suffix _20, reading M106): 0.9399
Th-T fluorescence, mean of three wells (Fig. 7a) (column suffix _50, measurement M19): 0.2078
Th-T fluorescence, mean of three wells (Fig. 7a) (column suffix _50, measurement M20): 0.2087
Th-T fluorescence, mean of three wells (Fig. 7a) (column suffix _50, measurement M21): 0.2125
Th-T fluorescence, mean of three wells (Fig. 7a) (column suffix _50, measurement M22): 0.212
Th-T fluorescence, mean of three wells (Fig. 7a) (column suffix _50, measurement M23): 0.2107
Th-T fluorescence, mean of three wells (Fig. 7a) (column suffix _50, measurement M24): 0.2101
Th-T fluorescence, mean of three wells (Fig. 7a) (column suffix _50, measurement M25): 0.2098
Th-T fluorescence, mean of three wells (Fig. 7a) (column suffix _50, measurement M26): 0.2113
Th-T fluorescence, mean of three wells (Fig. 7a) (column suffix _50, measurement M27): 0.2118
Th-T fluorescence, mean of three wells (Fig. 7a) (column suffix _50, measurement M28): 0.2093
Th-T fluorescence, mean of three wells (Fig. 7a) (column suffix _50, measurement M29): 0.2091
Th-T assay signal, mean of three wells (Fig. 7a) (column suffix _50, reading M1): 0.2216
Th-T assay signal, mean of three wells (Fig. 7a) (column suffix _50, reading M2): 0.219
Th-T assay signal, mean of three wells (Fig. 7a) (column suffix _50, reading M3): 0.2148
Th-T assay signal, mean of three wells (Fig. 7a) (column suffix _50, reading M4): 0.2093
Th-T assay signal, mean of three wells (Fig. 7a) (column suffix _50, reading M5): 0.2111
Th-T assay signal, mean of three wells (Fig. 7a) (column suffix _50, reading M6): 0.209
Th-T assay signal, mean of three wells (Fig. 7a) (column suffix _50, reading M7): 0.2096
Th-T assay signal, mean of three wells (Fig. 7a) (column suffix _50, reading M8): 0.2075
Th-T assay signal, mean of three wells (Fig. 7a) (column suffix _50, reading M9): 0.2085
Th-T assay signal, mean of three wells (Fig. 7a) (column suffix _50, reading M10): 0.2097
Th-T assay signal, mean of three wells (Fig. 7a) (column suffix _50, reading M11): 0.2085
Th-T assay signal, mean of three wells (Fig. 7a) (column suffix _50, reading M12): 0.2082
Th-T assay signal, mean of three wells (Fig. 7a) (column suffix _50, reading M13): 0.2085
Th-T assay signal, mean of three wells (Fig. 7a) (column suffix _50, reading M14): 0.2061
Th-T assay signal, mean of three wells (Fig. 7a) (column suffix _50, reading M15): 0.2099
Th-T assay signal, mean of three wells (Fig. 7a) (column suffix _50, reading M16): 0.2095
Th-T assay signal, mean of three wells (Fig. 7a) (column suffix _50, reading M17): 0.2108
Th-T assay signal, mean of three wells (Fig. 7a) (column suffix _50, reading M18): 0.2093
Fig. 7a Th-T reading, mean of three wells (column suffix _50, reading M85): 0.38
Fig. 7a Th-T reading, mean of three wells (column suffix _50, reading M86): 0.3921
Fig. 7a Th-T reading, mean of three wells (column suffix _50, reading M87): 0.401
Fig. 7a Th-T reading, mean of three wells (column suffix _50, reading M88): 0.4081
Fig. 7a Th-T reading, mean of three wells (column suffix _50, reading M89): 0.4167
Fig. 7a Th-T reading, mean of three wells (column suffix _50, reading M90): 0.4233
Fig. 7a Th-T reading, mean of three wells (column suffix _50, reading M91): 0.4313
Fig. 7a Th-T reading, mean of three wells (column suffix _50, reading M92): 0.4386
Fig. 7a Th-T reading, mean of three wells (column suffix _50, reading M93): 0.4449
Fig. 7a Th-T reading, mean of three wells (column suffix _50, reading M94): 0.4505
Fig. 7a Th-T reading, mean of three wells (column suffix _50, reading M95): 0.4544
Fig. 7a Th-T reading, mean of three wells (column suffix _50, reading M96): 0.4583
Fig. 7a Th-T reading, mean of three wells (column suffix _50, reading M97): 0.4639
Fig. 7a Th-T reading, mean of three wells (column suffix _50, reading M98): 0.4638
Fig. 7a Th-T reading, mean of three wells (column suffix _50, reading M99): 0.4696
Fig. 7a Th-T reading, mean of three wells (column suffix _50, reading M100): 0.4671
Fig. 7a Th-T reading, mean of three wells (column suffix _50, reading M101): 0.4718
Fig. 7a Th-T reading, mean of three wells (column suffix _50, reading M102): 0.4727
Fig. 7a Th-T reading, mean of three wells (column suffix _50, reading M103): 0.4762
Fig. 7a Th-T reading, mean of three wells (column suffix _50, reading M104): 0.4757
Fig. 7a Th-T reading, mean of three wells (column suffix _50, reading M105): 0.4769
Fig. 7a Th-T reading, mean of three wells (column suffix _50, reading M106): 0.4817
Th-T fluorescence, mean of three wells (compound at 10, reading M41 of time course): 0.2566
Th-T fluorescence, mean of three wells (compound at 10, reading M42 of time course): 0.2579
Th-T fluorescence, mean of three wells (compound at 10, reading M43 of time course): 0.2567
Th-T fluorescence, mean of three wells (compound at 10, reading M44 of time course): 0.2585
Th-T fluorescence, mean of three wells (compound at 10, reading M45 of time course): 0.2609
Th-T fluorescence, mean of three wells (compound at 10, reading M46 of time course): 0.2644
Th-T fluorescence, mean of three wells (compound at 10, reading M47 of time course): 0.2626
Th-T fluorescence, mean of three wells (compound at 10, reading M48 of time course): 0.2676
Th-T fluorescence, mean of three wells (compound at 10, reading M49 of time course): 0.2662
Th-T fluorescence, mean of three wells (compound at 10, reading M50 of time course): 0.2709
Th-T fluorescence, mean of three wells (compound at 10, reading M51 of time course): 0.2759
Th-T fluorescence, mean of three wells (compound at 10, reading M52 of time course): 0.2782
Th-T fluorescence, mean of three wells (compound at 10, reading M53 of time course): 0.2826
Th-T fluorescence, mean of three wells (compound at 10, reading M54 of time course): 0.2883
Th-T fluorescence, mean of three wells (compound at 10, reading M55 of time course): 0.2969
Th-T fluorescence, mean of three wells (compound at 10, reading M56 of time course): 0.3032
Th-T fluorescence, mean of three wells (compound at 10, reading M57 of time course): 0.3204
Th-T fluorescence, mean of three wells (compound at 10, reading M58 of time course): 0.3339
Th-T fluorescence, mean of three wells (compound at 10, reading M59 of time course): 0.3536
Th-T fluorescence, mean of three wells (compound at 10, reading M60 of time course): 0.3831
Th-T fluorescence, mean of three wells (compound at 10, reading M61 of time course): 0.414
Th-T fluorescence, mean of three wells (compound at 10, reading M62 of time course): 0.4619
Th-T fluorescence, mean of three wells (compound at 20, reading M41 of time course): 0.2134
Th-T fluorescence, mean of three wells (compound at 20, reading M42 of time course): 0.2125
Th-T fluorescence, mean of three wells (compound at 20, reading M43 of time course): 0.2115
Th-T fluorescence, mean of three wells (compound at 20, reading M44 of time course): 0.212
Th-T fluorescence, mean of three wells (compound at 20, reading M45 of time course): 0.2129
Th-T fluorescence, mean of three wells (compound at 20, reading M46 of time course): 0.214
Th-T fluorescence, mean of three wells (compound at 20, reading M47 of time course): 0.2155
Th-T fluorescence, mean of three wells (compound at 20, reading M48 of time course): 0.2155
Th-T fluorescence, mean of three wells (compound at 20, reading M49 of time course): 0.2153
Th-T fluorescence, mean of three wells (compound at 20, reading M50 of time course): 0.2164
Th-T fluorescence, mean of three wells (compound at 20, reading M51 of time course): 0.2208
Th-T fluorescence, mean of three wells (compound at 20, reading M52 of time course): 0.2184
Th-T fluorescence, mean of three wells (compound at 20, reading M53 of time course): 0.2214
Th-T fluorescence, mean of three wells (compound at 20, reading M54 of time course): 0.2246
Th-T fluorescence, mean of three wells (compound at 20, reading M55 of time course): 0.224
Th-T fluorescence, mean of three wells (compound at 20, reading M56 of time course): 0.2282
Th-T fluorescence, mean of three wells (compound at 20, reading M57 of time course): 0.2293
Th-T fluorescence, mean of three wells (compound at 20, reading M58 of time course): 0.2297
Th-T fluorescence, mean of three wells (compound at 20, reading M59 of time course): 0.2309
Th-T fluorescence, mean of three wells (compound at 20, reading M60 of time course): 0.2314
Th-T fluorescence, mean of three wells (compound at 20, reading M61 of time course): 0.2372
Th-T fluorescence, mean of three wells (compound at 20, reading M62 of time course): 0.2381
Th-T fluorescence, mean of three wells (compound at 50, reading M41 of time course): 0.2143
Th-T fluorescence, mean of three wells (compound at 50, reading M42 of time course): 0.2133
Th-T fluorescence, mean of three wells (compound at 50, reading M43 of time course): 0.2141
Th-T fluorescence, mean of three wells (compound at 50, reading M44 of time course): 0.2135
Th-T fluorescence, mean of three wells (compound at 50, reading M45 of time course): 0.2151
Th-T fluorescence, mean of three wells (compound at 50, reading M46 of time course): 0.2145
Th-T fluorescence, mean of three wells (compound at 50, reading M47 of time course): 0.2129
Th-T fluorescence, mean of three wells (compound at 50, reading M48 of time course): 0.2151
Th-T fluorescence, mean of three wells (compound at 50, reading M49 of time course): 0.2127
Th-T fluorescence, mean of three wells (compound at 50, reading M50 of time course): 0.2161
Th-T fluorescence, mean of three wells (compound at 50, reading M51 of time course): 0.2181
Th-T fluorescence, mean of three wells (compound at 50, reading M52 of time course): 0.2182
Th-T fluorescence, mean of three wells (compound at 50, reading M53 of time course): 0.2185
